2 compounds from US12583884B2, “3beta-(benzyloxy)-17alpha-methyl-pregn-5-en-20-one for use in the treatment of cognitive disorders” (AELIS FARMA, priority 2018, dated 2026) can be followed below.

Structures are written as SMILES.

Series [1] concerns the target T1, Vasoactive intestinal peptide PAC1-PACAP (Homo sapiens, UniProt P41586).
T1 construct: CEREP (contract panel)
In words: CEREP binding profile: PAC1. The text has this:
(§1) The CEREP High-throughput profile consists of a broad collection of 80 transmembrane and soluble receptors, ion channels and G-Protein coupled receptors.

Series [2] has as its system primary culture of rat hepatocytes. In words: Hepatotoxicity in primary culture of hepatocytes. Type of series: cell-based. The note with it: 0.1 to 100 μM; 48 hours. Here is the method: The percentage of cytolysed hepatocytes over time was determined by time lapse imaging with a fluorescent cytolysis marker. The number of bile canaliculi after 48 hours of treatment was determined using a fluorescent bile salt analog.
Primary rat hepatocytes from 10-12 weeks old Wistar rats were isolated using a two-step collagenase perfusion method. After 24 hours, cells were covered with a layer of Matrigel to perform a sandwich configuration culture. […] Cells were then stained using a fluorescent bile salt analog to measure the bile canaliculi network state and the Bsep pump activity. Acetaminophen (30 mM) and Cyclosporin A (1 μM) were added as positive controls of hepatotoxicity and biliary canaliculi loss, respectively.

Series [3] has as its system Ts65Dn mice. In words: Declarative/relational memory (radial maze flexibility test), Down syndrome model. Type of series: in vivo, mouse. Particulars: 0.6 μg/ml in drinking water. How it is done: The relational memory task was performed using 8-arm radial mazes. The diameter of the central platform was 30 cm and the arms were 55 cm length; 10 cm width and 100 cm height from the floor. Each arm was equipped with a retractable door at its entrance and with a food-pellet delivering system at its end. Each maze was placed in a room containing visual cues on the walls to enable spatial discrimination. There was no intra-maze cue. Each maze was fully automated by videotracking (IMETRONIC Pessac—France). This allowed to automatically control the doors of the arms (opening/closure) and food delivery according to the location of the mouse.
Food-restricted mice (85% of their original body weight all throughout the study) were first submitted to 3 sessions of habituation to the mazes. During each habituation session, the mouse freely explored the maze until it visited each of the 8 arms, or 30 min elapsed. At the beginning of each habituation session, the mouse was placed in the central platform with all the arms closed. […]
The number of correct responses was measured at each session. […]
At the end of the behavioral study, mice were sacrificed, blood and brain samples were collected. 3Bn17MeP was quantified by LC/MS-MS chromatography in both plasma and brain.

Series [4] relates to Ts65Dn mice. In words: Short-term sequential object recognition, Down syndrome model. Type of series: in vivo, mouse. Particulars: 0.6 μg/ml in drinking water, 2 months, delays 5 and 35 min. Here is the method:
Mice were allowed to explore 3 different objects (A, B, C) presented one after the other and following one of the two possible sequences: A-C-C-B-A and A-B-C-C-A. In an open field, mice were exposed to object A for 5 min and then placed back into their home cage. After a delay of 5 minutes, mice were exposed to object B or C for 5 min and then placed back into their home cage, and so on. Consequently, the retention delay between two presentations of object C was of 5 minutes whereas the retention delay between two presentations of object A was of 35 minutes. The time spent exploring object A or C at the first presentation was compared with the time exploring the same object at the second presentation. This parameter is used to evaluate object recognition performances.
Before the object recognition procedure, mice were tested in the radial maze.

Series [5] addresses T2, Steroid nuclear receptors AR (Homo sapiens, UniProt P10275).
T2 construct: CEREP
Briefly: Binding: AR.
From the text: as §1

A further series can be described thus: in vivo. Particulars: both, Sprague-Dawley, rat, 20 mg/kg. How it is done:
Blood samples for plasma drug analysis were collected after the last treatment, at 5 and 24 hours post-dose. Quantification was done by LC/MS-MS chromatography.

For series [6], the target named is T3, Steroid nuclear receptors GR (Homo sapiens, UniProt P04150).
T3 construct: CEREP
In words: CEREP binding profile: GR.
From the text: as §1

The subject of series [7] is Ts65Dn mice. In words: Working memory (radial maze), Down syndrome model. The format is in vivo, mouse. The note with it: 0.06 μg/ml in drinking water. Here is the method:
The working memory task was performed using 8-arm radial mazes described in Example 3a. Food restriction and habituation procedure were performed as described in Example 3a. The working memory procedure began 24 h after the last habituation session. Each mouse was submitted to 15 daily learning sessions (5 blocks of 3 days) made of 23 trials each. Six arms out of eight were used during the working memory test (3 pairs (A, B or C) of adjacent arms).
At the beginning of each daily session, the mouse was placed at the center of the maze with no access to the arms. The doors of the first pair of arms then opened giving access to both arms of the pair. Once the mouse had visited one of the arms and goes back to the central platform, the door closed, and the animal was confined in the central platform for 10 sec (inter-trial interval, ITI) before two doors opened again giving access to a pair of arms. Once the animal had visited one of the arms and returns to the central platform the doors close again for 10 sec before the next trial. Within each session, the mouse was submitted to repeated and successive presentations of the 3 pairs of arms one at a time. At the first presentation of each arm pair the food reward was present in both arms. […]

T1 sequence (P41586 21-468): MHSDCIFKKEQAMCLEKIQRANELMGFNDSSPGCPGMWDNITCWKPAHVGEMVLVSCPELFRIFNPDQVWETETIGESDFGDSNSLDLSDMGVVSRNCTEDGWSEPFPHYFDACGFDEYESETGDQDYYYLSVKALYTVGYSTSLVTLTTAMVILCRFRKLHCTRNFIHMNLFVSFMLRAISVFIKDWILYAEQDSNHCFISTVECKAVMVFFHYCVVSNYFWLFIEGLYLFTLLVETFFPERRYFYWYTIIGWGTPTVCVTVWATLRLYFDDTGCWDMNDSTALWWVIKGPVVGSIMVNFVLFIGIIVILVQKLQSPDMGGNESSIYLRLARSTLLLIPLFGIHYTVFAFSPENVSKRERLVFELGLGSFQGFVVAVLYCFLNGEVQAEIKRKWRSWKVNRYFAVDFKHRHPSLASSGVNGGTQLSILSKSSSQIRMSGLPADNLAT
T3 sequence (P04150 whole entry): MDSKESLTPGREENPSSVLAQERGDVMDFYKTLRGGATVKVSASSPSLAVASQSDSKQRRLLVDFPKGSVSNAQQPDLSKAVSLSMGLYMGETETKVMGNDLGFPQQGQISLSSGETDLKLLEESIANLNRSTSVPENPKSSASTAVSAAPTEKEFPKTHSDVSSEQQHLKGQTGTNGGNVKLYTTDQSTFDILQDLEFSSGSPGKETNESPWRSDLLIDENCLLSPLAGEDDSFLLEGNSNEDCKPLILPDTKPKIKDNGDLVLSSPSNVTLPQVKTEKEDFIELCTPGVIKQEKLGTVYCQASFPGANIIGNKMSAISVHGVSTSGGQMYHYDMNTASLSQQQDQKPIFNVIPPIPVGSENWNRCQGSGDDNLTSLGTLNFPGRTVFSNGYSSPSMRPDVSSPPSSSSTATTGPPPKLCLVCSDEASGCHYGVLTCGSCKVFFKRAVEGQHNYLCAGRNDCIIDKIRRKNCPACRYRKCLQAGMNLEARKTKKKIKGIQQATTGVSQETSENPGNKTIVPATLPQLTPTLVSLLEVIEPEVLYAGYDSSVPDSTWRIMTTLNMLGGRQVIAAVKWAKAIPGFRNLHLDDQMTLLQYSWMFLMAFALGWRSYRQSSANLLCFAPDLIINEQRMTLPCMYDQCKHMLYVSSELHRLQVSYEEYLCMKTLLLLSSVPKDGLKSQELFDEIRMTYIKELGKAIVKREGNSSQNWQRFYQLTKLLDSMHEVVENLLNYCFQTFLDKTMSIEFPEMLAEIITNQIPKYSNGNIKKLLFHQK
T2 sequence (P10275 whole entry): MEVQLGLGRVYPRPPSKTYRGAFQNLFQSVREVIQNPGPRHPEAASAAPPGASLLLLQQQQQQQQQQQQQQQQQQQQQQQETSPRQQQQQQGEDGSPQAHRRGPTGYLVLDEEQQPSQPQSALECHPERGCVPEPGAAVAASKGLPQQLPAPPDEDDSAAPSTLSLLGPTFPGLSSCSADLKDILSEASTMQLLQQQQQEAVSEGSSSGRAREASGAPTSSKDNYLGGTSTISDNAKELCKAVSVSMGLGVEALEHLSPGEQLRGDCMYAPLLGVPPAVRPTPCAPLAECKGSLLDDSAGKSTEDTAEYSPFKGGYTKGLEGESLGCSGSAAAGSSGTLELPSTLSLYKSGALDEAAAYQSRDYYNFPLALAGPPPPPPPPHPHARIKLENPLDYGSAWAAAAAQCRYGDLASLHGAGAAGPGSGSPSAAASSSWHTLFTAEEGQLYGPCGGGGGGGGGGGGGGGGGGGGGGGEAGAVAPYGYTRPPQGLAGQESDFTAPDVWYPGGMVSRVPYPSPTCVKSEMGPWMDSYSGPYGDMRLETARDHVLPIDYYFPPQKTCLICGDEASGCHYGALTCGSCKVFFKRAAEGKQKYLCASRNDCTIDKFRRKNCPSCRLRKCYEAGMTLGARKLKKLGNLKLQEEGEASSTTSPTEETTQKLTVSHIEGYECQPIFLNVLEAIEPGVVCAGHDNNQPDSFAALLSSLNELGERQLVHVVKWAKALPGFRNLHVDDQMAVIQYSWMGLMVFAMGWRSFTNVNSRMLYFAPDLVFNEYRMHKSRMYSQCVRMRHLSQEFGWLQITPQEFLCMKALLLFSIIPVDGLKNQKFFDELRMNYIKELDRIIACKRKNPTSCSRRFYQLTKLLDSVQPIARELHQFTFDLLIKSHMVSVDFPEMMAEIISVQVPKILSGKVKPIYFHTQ

With `CC(=O)[C@H]1CC[C@H]2[C@@H]3CC=C4C[C@@H](O)CC[C@]4(C)[C@H]3CC[C@]12C` [pregnenolone, reference compound], in series [1], the inhibition at 10 µM is -25%.

On to `CC(=O)[C@@]1(C)CC[C@H]2[C@@H]3CC=C4C[C@@H](OCc5ccccc5)CC[C@]4(C)[C@H]3CC[C@@]21C` [3Bn17MeP, 3β-benzyloxy, 17α-methyl-pregn-5-en-20-one], for which the “Hepatotoxic effect (hepatocyte survival)” value in series [2] is “no hepatotoxic effect”. The “Choice accuracy in the flexibility test (declarative/relational memory)” value in the series on Ts65Dn mice [3] is listed as “enhanced choice accuracy of Ts65Dn mice that reached the level of WT”. Also, the “Exploration of the familiar object (short-term sequential object recognition)” value in the series on Ts65Dn mice [4] was “explored significantly less the familiar object after 5 and 35 minutes”. In series [5], the inhibition at 10 µM stood at 16%. In “in vivo”, the concentration at 5 h turned out to be 4650 ng/mL and the concentration at 24 h came to 974 ng/mL. In addition, the inhibition at 10 µM in series [6] is -2%. Moreover, in the series on Ts65Dn mice [7], the “Correct responses (working memory)” value was “increased correct responses in Ts65Dn as compared to vehicle mice that reached the level of WT”.

By inhibition is commonly meant the drop in the measured response relative to a control, in per cent.
